Target: T1, recombinant Axl tyrosine kinase (Homo sapiens, UniProt P30530)
T1 construct: encompassing amino acids 473 to 894 of Axl; GST (N); made in house; host or cells: SF126 insect cells
T1 sequence (P30530 473-894): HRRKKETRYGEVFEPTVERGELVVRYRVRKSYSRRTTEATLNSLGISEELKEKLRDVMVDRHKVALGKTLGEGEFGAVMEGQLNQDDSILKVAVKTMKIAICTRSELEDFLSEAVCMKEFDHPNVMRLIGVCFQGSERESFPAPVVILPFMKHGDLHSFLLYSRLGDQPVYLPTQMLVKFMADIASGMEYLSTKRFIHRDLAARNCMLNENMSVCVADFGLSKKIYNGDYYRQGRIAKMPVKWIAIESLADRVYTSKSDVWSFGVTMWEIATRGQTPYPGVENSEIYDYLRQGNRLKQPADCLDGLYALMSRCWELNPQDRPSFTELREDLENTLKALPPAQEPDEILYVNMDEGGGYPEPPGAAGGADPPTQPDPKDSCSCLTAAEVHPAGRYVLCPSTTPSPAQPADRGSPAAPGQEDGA
Assay: In vitro Axl kinase assay (AlphaScreen), Test (a)
Type: biochemical
Conditions: test compound at 1 μM; first value quoted

Row | Structure (SMILES) | % Axl tyrosine kinase inhibition at 1 μM concentration
1 | COc1cc(-c2cnc(N)c(-c3nc4ncccc4o3)c2)ccc1OC[C@H]1CCCN1 [Example 43C.24] | 99.6%
2 | COc1cc(-c2cnc(N)c(-c3nc4ncccc4o3)c2)ccc1OCCN1CCNCC1 [Example 43C.25] | 99.5%
3 | COc1cc(-c2cnc(N)c(-c3nc4ncccc4o3)c2)ccc1OC1CCCNC1 (centres unmarked) [Example 43C.26] | 99.6%
4 | COc1cc(-c2cnc(N)c(-c3nc4ncccc4o3)c2)ccc1OCCCN [Example 43C.27] | 99.4%
5 | CNCCCOc1ccc(-c2cnc(N)c(-c3nc4ncccc4o3)c2)cc1OC [Example 43C.28] | 51.0%
6 | COc1cc(-c2cnc(N)c(-c3nc4ncccc4o3)c2)ccc1OC1CCNCC1 [Example 43C.29] | 99.9%
7 | COc1cc(-c2cnc(N)c(-c3nc4ncccc4o3)c2)ccc1OCCCCN [Example 43C.30] | 99.0%
8 | COc1cc(-c2cnc(N)c(-c3nc4ncccc4o3)c2)ccc1OCCC1CCNCC1 [Example 43C.31] | 99.3%
9 | COc1cc(-c2cnc(N)c(-c3nc4ncccc4o3)c2)ccc1OCCCN1CCNCC1 [Example 43C.32] | 99.8%
10 | COc1cc(-c2cnc(N)c(-c3nc4ncccc4o3)c2)ccc1OCC1CCCNC1 (centres unmarked) [Example 43C.33] | 99.8%
11 | COc1cc(-c2cnc(N)c(-c3nc4ncccc4o3)c2)ccc1OCCCN1CC(C)NC(C)C1 (centres unmarked) [Example 43C.34] | 99.1%
12 | COc1cc(-c2cnc(N)c(-c3nc4ncccc4o3)c2)ccc1OCCOCCN1CCNCC1 [Example 43C.35] | 99.2%
13 | COCC1CC(Oc2ccc(-c3cnc(N)c(-c4nc5ncccc5o4)c3)cc2OC)CN1 (centres unmarked) [Example 43C.36] | 99.8%
14 | CN[C@H]1COCC[C@H]1Oc1ccc(-c2cnc(N)c(-c3nc4ncccc4o3)c2)cc1OC [Example 43C.37] | 99.4%
15 | COc1cc(-c2cnc(N)c(-c3nc4ncccc4o3)c2)ccc1OC1CCCNCC1 (centres unmarked) [Example 43C.38] | 99.8%
16 | CN(C)C1CCN(C(=O)c2ccc(-c3cnc(N)c(-c4nc5cccnc5o4)c3)cc2)CC1 [Example 45A.1] | 92.9%
17 | CN(C)CCCCNC(=O)c1ccc(-c2cnc(N)c(-c3nc4cccnc4o3)c2)cc1 [Example 45A.2] | 96.6%
18 | CN1CCC(N(C)C(=O)c2ccc(-c3cnc(N)c(-c4nc5cccnc5o4)c3)cc2)C1 (centres unmarked) [Example 45A.3] | 98.0%
19 | CN1CCCC1CCNC(=O)c1ccc(-c2cnc(N)c(-c3nc4cccnc4o3)c2)cc1 (centres unmarked) [Example 45A.5] | 98.8%
20 | Nc1ncc(-c2ccc(C(=O)NCCCN3CCCC3)cc2)cc1-c1nc2cccnc2o1 [Example 45A.6] | 97.4%

Row | Structure (SMILES) | % Axl tyrosine kinase inhibition at 1 μM concentration
21 | Nc1ncc(-c2ccc(C(=O)NCCn3ccnc3)cc2)cc1-c1nc2cccnc2o1 [Example 45A.7] | 97.7%
22 | Nc1ncc(-c2ccc(C(=O)N3CCCCC3CN3CCCCC3)cc2)cc1-c1nc2cccnc2o1 (centres unmarked) [Example 45A.8] | 99.8%
23 | Nc1ncc(-c2ccc(C(=O)NCCCN3CCCCC3)cc2)cc1-c1nc2cccnc2o1 [Example 45A.9] | 99.0%
24 | COCCN1CCC(NC(=O)c2ccc(-c3cnc(N)c(-c4nc5cccnc5o4)c3)cc2)CC1 [Example 45A.10] | 97.5%
25 | Nc1ncc(-c2ccc(C(=O)NCCN3CCS(=O)(=O)CC3)cc2)cc1-c1nc2cccnc2o1 [Example 45A.12] | 96.3%
26 | CN(C)CCC1CCN(C(=O)c2ccc(-c3cnc(N)c(-c4nc5cccnc5o4)c3)cc2)CC1 [Example 45A.14] | 89.9%
27 | CN1CCCCC1C1CCCN1C(=O)c1ccc(-c2cnc(N)c(-c3nc4cccnc4o3)c2)cc1 (centres unmarked) [Example 45A.15] | 99.7%
28 | Nc1ncc(-c2ccc(C(=O)N3CCCC3CN3CCOCC3)cc2)cc1-c1nc2cccnc2o1 (centres unmarked) [Example 45A.16] | 94.2%
29 | Nc1ncc(-c2ccc(C(=O)N3CCCC3CN3CCCCCC3)cc2)cc1-c1nc2cccnc2o1 (centres unmarked) [Example 45A.17] | 99.6%
30 | CC1CCCCN1CC1CCCN1C(=O)c1ccc(-c2cnc(N)c(-c3nc4cccnc4o3)c2)cc1 (centres unmarked) [Example 45A.18] | 99.7%
31 | CN1CCCC(NC(=O)c2ccc(-c3cnc(N)c(-c4nc5cccnc5o4)c3)cc2)C1 (centres unmarked) [Example 45A.19] | 98.7%
32 | CN(C)C1CCCN(C(=O)c2ccc(-c3cnc(N)c(-c4nc5cccnc5o4)c3)cc2)C1 (centres unmarked) [Example 45A.20] | 98.9%
33 | Nc1ncc(-c2ccc(C(=O)N3CCCCC3CN3CCOCC3)cc2)cc1-c1nc2cccnc2o1 (centres unmarked) [Example 45A.21] | 96.4%
34 | Nc1ncc(-c2ccc(C(=O)N3CC[C@H](N4CCCC4)C3)cc2)cc1-c1nc2cccnc2o1 [Example 45A.22] | 97.1%
35 | Nc1ncc(-c2ccc(C(=O)N3CCCCC3CN3CCCC3)cc2)cc1-c1nc2cccnc2o1 (centres unmarked) [Example 45A.23] | 99.8%
36 | CN(C)C1CCC(NC(=O)c2ccc(-c3cnc(N)c(-c4nc5cccnc5o4)c3)cc2)CC1 (centres unmarked) [Example 45A.24] | 95.8%
37 | CN1CCC(CNC(=O)c2ccc(-c3cnc(N)c(-c4nc5cccnc5o4)c3)cc2)CC1 [Example 45A.25] | 97.8%
38 | CN1CCCCC1CNC(=O)c1ccc(-c2cnc(N)c(-c3nc4cccnc4o3)c2)cc1 (centres unmarked) [Example 45A.26] | 99.6%
39 | CN1CCC(CNC(=O)c2ccc(-c3cnc(N)c(-c4nc5cccnc5o4)c3)cc2)C1 (centres unmarked) [Example 45A.27] | 97.9%
40 | CN1CCOC(CNC(=O)c2ccc(-c3cnc(N)c(-c4nc5cccnc5o4)c3)cc2)C1 (centres unmarked) [Example 45A.28] | 97.5%

Row | Structure (SMILES) | % Axl tyrosine kinase inhibition at 1 μM concentration
41 | Nc1ncc(-c2ccc(C(=O)N3CCCCC3CCN3CCCC3)cc2)cc1-c1nc2cccnc2o1 (centres unmarked) [Example 45A.29] | 98.8%
42 | CN1CC(NC(=O)c2ccc(-c3cnc(N)c(-c4nc5cccnc5o4)c3)cc2)C1 [Example 45A.30] | 97.4%
43 | CN1CCC(N(C)C(=O)c2ccc(-c3cnc(N)c(-c4nc5cccnc5o4)c3)cc2)CC1 [Example 45A.31] | 95.9%
44 | Nc1ncc(-c2ccc(C(=O)NCCN3CCCCCC3)cc2)cc1-c1nc2cccnc2o1 [Example 45A.32] | 99.6%
45 | CCN(CC)C1CCN(C(=O)c2ccc(-c3cnc(N)c(-c4nc5cccnc5o4)c3)cc2)C1 (centres unmarked) [Example 45A.33] | 97.7%
46 | Nc1ncc(-c2ccc(C(=O)N[C@H]3CN4CCC3CC4)cc2)cc1-c1nc2cccnc2o1 [Example 45A.35] | 98.4%
47 | Nc1ncc(-c2ccc(C(=O)NCCN3CCC(F)(F)C3)cc2)cc1-c1nc2cccnc2o1 [Example 45A.37] | 92.2%
48 | Nc1ncc(-c2ccc(C(=O)NCCN3CC[C@H](F)C3)cc2)cc1-c1nc2cccnc2o1 [Example 45A.38] | 98.4%
49 | Nc1ncc(-c2ccc(C(=O)NCCCN3CC[C@@H](F)C3)cc2)cc1-c1nc2cccnc2o1 [Example 45A.39] | 98.4%
50 | Nc1ncc(-c2ccc(C(=O)NCCCN3CC[C@H](F)C3)cc2)cc1-c1nc2cccnc2o1 [Example 45A.40] | 98.3%
51 | CN(C)C1(CNC(=O)c2ccc(-c3cnc(N)c(-c4nc5cccnc5o4)c3)cc2)CCCCC1 [Example 45A.41] | 99.0%
52 | CC(C)N1CCC(CN(C)C(=O)c2ccc(-c3cnc(N)c(-c4nc5cccnc5o4)c3)cc2)C1 (centres unmarked) [Example 45A.42] | 99.3%
53 | CC(C)N1CCC[C@H]1CNC(=O)c1ccc(-c2cnc(N)c(-c3nc4cccnc4o3)c2)cc1 [Example 45A.43] | 99.9%
54 | CN1CCC(NC(=O)c2ccc(-c3cnc(N)c(-c4nc5cccnc5o4)c3)cc2)C2CCCCC21 (centres unmarked) [Example 45A.44] | 99.3%
55 | C[C@@H]1CN(CCNC(=O)c2ccc(-c3cnc(N)c(-c4nc5cccnc5o4)c3)cc2)C[C@H](C)O1 [Example 45A.45] | 93.8%
56 | CC1CCN(CCCNC(=O)c2ccc(-c3cnc(N)c(-c4nc5cccnc5o4)c3)cc2)CC1 [Example 45A.46] | 99.1%
57 | CCN1CCC(CNC(=O)c2ccc(-c3cnc(N)c(-c4nc5cccnc5o4)c3)cc2)CC1 [Example 45A.47] | 96.1%
58 | CN(C)CCN(C)C(=O)c1ccc(-c2cnc(N)c(-c3nc4cccnc4o3)c2)cc1 [Example 45A.48] | 98.3%

Same assay, conditions: test compound at 1 μM; first value quoted; read-out: % Axl tyrosine kinase inhibition at 1 μM concentration

Row | Structure (SMILES) | inhibition at 1 µM
59 | CN(C)CCNC(=O)c1ccc(-c2cnc(N)c(-c3nc4cccnc4o3)c2)cc1 [Example 44, 4-(6-amino-5-(oxazolo[5,4-b]pyridin-2-yl)pyridin-3-yl)-N-(2-(dimethylamino)ethyl)benzamide] | 99.6%

— US8017611B2, “Pyridine and pyrazine derivatives -083” (AstraZeneca AB, priority 2007, dated 2011)
